Measured values: US20180172669A1, “SCREENING AND USE OF PIPERIDINO PYRAZOLOPYRIMIDINE COMPOUND” (Institute of Basic Medical Sciences, Chinese Academy of …, priority 2015, published 2018)

B1: BMP4: BMP ligand (Peprotech) used to stimulate ID1-V-LUC hES cells (protein, UniProt P12644 293-408, looked up)
Bone morphogenetic protein 4: SPKHHSQRARKKNKNCRRHSLYVDFSDVGWNDWIVAPPGYQAFYCHGDCPFPLADHLNSTNHAIVQTLVNSVNSSIPKACCVPTELSAISMLYLDEYDKVVLKNYQEMVVEGCGCR

What was measured:
[1] = test system: Id1 promoter driven Venus-Luci dual reporter gene in ID1-V-LUC hES; assay: ID1-V-LUC hES luciferase assay with compound (Example 4); format: cell-based, human; settings: 18-24 h
Description: ID1-V-LUC hES were seeded in a 96-well plate and were grown to 80% confluency. The old medium was removed and the cells were washed with PBS, then mTeSR medium of human embryonic stem cell (Biowish.Co.,Ltd.) was added. The cells were starved for 6 hours prior to incubating with the compound: 1H-Pyrazolo[3,4-d]pyrimidine, 1-phenyl-4-(1-piperidinyl)- (Cas No :23000-46-6). The compound was serially diluted to 5, 2.5, 1.25, 0.625, 0.3 μg/mL in above-mentioned medium, and sequentially added in the 96-well plate in which the stem cells of the model were seeded. Triplicate replicates were used for each concentration. At the same time, the well in which the medium containing 0.1% DMSO was added as blank control. After the incubation of 18-24 h at 37° C. (5% CO2), the cells were lysed with cell lysis buffer CCLR (Promega), and the luciferase activity were detected using the method according to the instruction of the detection system of reporter gene, Luciferase Assay System (Promega).
The activity of luciferase resulting from the stimulation of the compounds at different concentrations was calculated using the following formula:
Regulation rate=Luciferase activity of compound-treated cells/Luciferase activity of DMSO-treated cells×100%

endothelial cells = assay: Angiogenesis of endothelial cells on Matrigel; format: cell-based; settings: 2-8 hours; for ability of angiogenesis compared with control: ECs on Matrigel
Description: The endothelial cells were grown in complete culture medium (1% FBS in SFM) to confluency. One day before the experiment of angiogenesis, the medium was replaced by 0.2% FBS SFM to starve the cells for 16 hours. One the day before the experiment, Matrigel (Corning, 10 mg/ml) was put on ice overnight for thawing, and on the day of experiment, Matrigel was added in the wells of the pre-chilled 96-well plate (50 μl per well) and was distributed evenly in the wells. Then the plate was put in the incubator and incubated at 37 □ for 30 mins. Afterwards, the medium for starvation was removed and the cells were washed twice with DPBS, then Accutase enzyme was added to digest the cells for 1 minute. Later on, the SFM medium for starvation was added to resuspend the cells, and the cells were gently pipetted to form single cell suspension and centrifuged in room temperature at 1000 rpm for 4 mins. The cells were resuspended in SFM medium for starvation and counted. Then, the cells were seeded in 1×10^4 cells per well, and were gently shook to distributed evenly before putting in the incubator at 37 □. The angiogenesis was observed within 2-8 hours.

MCT-PAH rats = assay: Monocrotaline induced PAH rat model (MCT-PAH); format: in vivo, Sprague-Dawley rats; settings: 4.5 mg/kg intragastric gavage, three weeks after MCT
Description: In vivo experiments with MCT-PAH rats: Monocrotaline (MCT, 55 mg/kg) or saline were administrated subcutaneously in single dose to male Sprague-Dawley rats (supplied by Nation Institutes for Food and Medicament Control). Three weeks after the injection of MCT, 4.5 mg/kg of piperidino pyrazolopyrimidine compound (A), saline or positive control (Sildenafil) were administrated respectively to the rats by intragastric gavage. Two weeks after the administration, the right ventricular systolic pressure (RVSP) was measured and the survival rate was calculated with the data of RVSP recorded in BL-420E system (FIG. 13).

phosphodiesterase = assay: Inhibitory effect on phosphodiesterase; format: biochemical
[2] = test system: Id1 promoter driven Venus-Luci dual reporter gene in ID1-V-LUC hES; assay: ID1-V-LUC hES differentiated cells stimulated with BMP4, luciferase activity; format: cell-based, human; settings: after 4 hours of stimulation with 6.25 ng/mL of BMP4, differentiated cells
Description: Id1-Venus-Luc-MC1-DTA plasmid was linearized with AsiSI, and then the resulting plasmid was electroporated into human embryonic stem cells (H9) of P57 (a commercially available human embryonic stem cells which could be passage to expand). At 37° C., CO2 5%, the cells were cultured on the DR4 MEF-feeder-cells (APPLIEDSTEMCELL, Inc., U.S.) with the medium containing serum replacement, and the medium was replaced by fresh medium daily. BioRad electroporation machine (ZAP: 250 V, uF 500, TC 8.6) was used for electroporation, then 19 clones were screened out using puromycin, and the clones with green fluorescence were picked out (the cells containing MC1-DTA plasmid cannot survive). The consistency between fluorescent activity and expression of endogenous Id gene was measured (FIG. 8).
The luciferase activity increased over time (0, 1, 2 and 5 hours) after the stimulation with of BMP4. The effect of external stimulus on the expression of Id gene can be reflected maximally by expression level of luciferase. Therefore, clone 2 (named as ID1-V-LUC hES) was selected and was used to carry out the secondary screening for the compounds (FIG. 9). ID1-V-LUC hES was differentiated toward early mesoderm, also the vascular cell with smooth muscle cell markers (α SMA, Calponin) were obtained. […]

Molecule	expression level of luciferase of the stem cells of the model ([1]; 5, 2.5, 1.25, 0.625, 0.3 μg/mL)	peak expression level of luciferase (regulation rate) ([1]; concentration of the compound 2.5 μg/mL, vs DMSO) [fold]	ability of angiogenesis relative to VEGF treated ECs (endothelial cells; 1 μM)	ability of angiogenesis compared with control (endothelial cells; 1 μM)	ability of angiogenesis relative to VEGF treated ECs (endothelial cells; 5 μM)	ability of angiogenesis compared with control (endothelial cells; 5 μM)	pulmonary arterial pressure (right ventricular systolic pressure, RVSP) of MCT-PAH rats (MCT-PAH rats; measured two weeks after the administration)	survival rate of the rats with MCT-PAH (MCT-PAH rats; two weeks after the administration)	inhibitory effect on phosphodiesterase (phosphodiesterase)	regulation rate of ID1-V-LUC [2] [fold]
c1ccc(-n2ncc3c(N4CCCCC4)ncnc32)cc1 [piperidino pyrazolopyrimidine compound, 1H-Pyrazolo[3,4-d]pyrimidine,1-phenyl-4-(1-piperidinyl)-]	up-regulated	3.31	comparable	significantly increased	comparable	significantly increased	decreased significantly	increased obviously	weak inhibitory effect	–
B1	–	–	–	–	–	–	–	–	–	7.5
